Measured values published in article PMC7198766, “Structure-Activity Studies on the Hypertrehalosemic Hormone II of the Stick Insect Carausius morosus (Phasmatodea): Carbohydrate-Mobilization and Cardio-Stimulatory Activities” (Frontiers in Physiology, 2020).
“And” between values parts separate entries of the source, which are not always exact repeats. Equal entries are not always repeated. Marks after values point to notes of the source that are not given here.

What was measured:
[1] = system: ligated 6th instar Indian stick insects (Carausius morosus); test: Carbohydrate-mobilization (hypertrehalosemic) in vivo assay; settings: for Hemolymph carbohydrates, 90 min: 90 min after injection of 20 pmol peptide in 10 μl; for Hemolymph carbohydrates, 90 min / Hemolymph carbohydrates, Difference: neck-ligated 6th instar nymphs; for Hemolymph carbohydrates, Difference: 90 min minus 0 min, 20 pmol peptide in 10 μl injected; for Hemolymph carbohydrates, 0 min: before injection (0 min), 2 h after neck ligation, group later given 20 pmol peptide in 10 μl, 6th instar nymphs; for % Activity relative to the effect of Carmo-HrTH-II (metabolic): 20 pmol peptide injected, carbohydrate increase relative to Carmo-HrTH-II = 100, NS = no significant increase
Description: Sixth instar nymphs that were 1–2 days before molting were neck-ligated and used in the hypertrehalosemic in vivo assay as described in detail by [Gäde and Lohr (1982)]. Stock peptide solutions (5 pmol μl^–1) were diluted with distilled water to the desired concentration in 10 μl, which was injected into the stick insect nymphs.
In the first series of experiments, various doses of synthetic Carmo-HrTH-II and corpora cardiaca (CC) extract of C. morosus were used to determine the maximal hypertrehalosemic response of C. morosus. Hemolymph samples were taken from 17 to 18 days old 6th instar nymphs 2 h after they were neck-ligated and then 90 min after either CC extract or synthetic Carmo-HrTH-II was injected. Ligated nymphs injected with distilled water served as controls for handling stress. As depicted in Figures 1A,B, various doses of both Carmo-HrTH-II and CC extract increased the level of carbohydrates in the hemolymph in a dose-dependent manner. A dose of 0.04 pmol of synthetic Carmo-HrTH-II and the equivalent of 0.005 pairs of corpora cardiaca (pCC) were sufficient to give significant increases in hemolymph carbohydrates (p < 0.05). […] Doses of 0.1–0.5 pCC gave an average increase of 5.6 ± 0.6 mg carbohydrates ml^–1 hemolymph (Figure 1B); again, statistical analyses reveal no significant difference between the effect of these doses (p > 0.05).
Based on these pilot experiments, we selected a dose of 20 pmol for testing the analogs of Carmo-HrTH-II since such a dose of our lead compound, Carmo-HrTH-II had achieved maximal hypertrehalosemic activity.

[2] = system: heart of neck-ligated Carausius morosus; test: Semi-exposed heart bioassay (heart beat rate); type: in vivo; settings: for % Activity relative to the effect of Carmo-HrTH-II (myotropic) / Heart rate, Difference: 20 pmol peptide in 150 μl; for % Activity relative to the effect of Carmo-HrTH-II (myotropic): heart rate increase relative to Carmo-HrTH-II = 100, NS = no significant increase; for Heart rate, Post-application: after application of 20 pmol peptide in 150 μl saline, average of first four counts; for Heart rate, Post-application / Heart rate, Pre-application: neck-ligated stick insects; for Heart rate, Pre-application: in saline before application, semi-exposed heart; for Heart rate, Difference: post- minus pre-application
Description: The semi-exposed heart bioassay was carried out as described ([Marco et al., 2018]) with adult stick insects between 1 and 2 months old that were ligated at the neck. Briefly, a ventral incision of the abdomen exposed the ventral cavity with the internal organs; a few drops of stick insect saline (pH 6.6; 15 mM NaCl, 18 mM KCl, 7.5 mM CaCl2, 2 mM HEPES, 50 mM MgCl2, and 184 mM glucose according to [Ejaz and Lange, 2008]) were added to the exposed part. The semi-isolated heart preparation was viewed with a dissecting microscope (12-fold magnification), and the number of observed heart beats (contractions of the heart muscle) was counted during a fixed period using a manual tally counter and a timer. Once the heart had stabilized, saline was replaced with the test solution. For this the peptide stock solution of 5 pmol μl^–1 was diluted with stick insect saline to the desired concentration and a final volume of 150 μl was used for each test.
Heart rates under normal saline served as controls. The change in heart rate after the application of the test solution was calculated as an average of the first four counts and was compared to the average heart rates counted in saline before the application of the test solution. This comparison of change in heart rates was done for all the peptides tested.

“pGlu-Leu-Ala-Phe-Thr-Pro-Asn-Trp-Gly-Thr amide [Ala^3-Carmo-HrTH-II]” was tested, and the “Hemolymph carbohydrates, 90 min” value [1] was 11.1 ± 1.8 mg/mL, the “Hemolymph carbohydrates, Difference” value [1] was 0.8 ± 1.6 mg/mL and the “Hemolymph carbohydrates, 0 min” value [1] was 10.3 ± 2.4 mg/mL. The “% Activity relative to the effect of Carmo-HrTH-II (myotropic)” value [2] was 16%, the “Heart rate, Post-application” value [2] was 40 ± 6 beats min^−1 and the “Heart rate, Pre-application” value [2] was 38 ± 6 beats min^−1. For the same substance, the “Heart rate, Difference” value [2] was 2 ± 1 beats min^−1.
For “[N-Ac]Ala-Leu-Thr-Phe-Thr-Pro-Asn-Trp-Gly-Thr amide [Carmo-HrTH-II: [N-Ac]Ala^1]”, the “% Activity relative to the effect of Carmo-HrTH-II (metabolic)” value [1] was 28%, the “Hemolymph carbohydrates, 90 min” value [1] was 10.6 ± 2.0 mg/mL and the “Hemolymph carbohydrates, Difference” value [1] was 1.5 ± 1.1 mg/mL. The “Hemolymph carbohydrates, 0 min” value [1] was 9.0 ± 1.3 mg/mL, the “Heart rate, Post-application” value [2] was 39 ± 6 beats min^−1 and the “Heart rate, Pre-application” value [2] was 39 ± 6 beats min^−1. For the same substance, the “Heart rate, Difference” value [2] was 0 ± 0 beats min^−1.
“pGlu-Leu-Thr-Phe-Thr-Pro-Asn-Trp*-Gly-Thr amide [Carmo-HrTH-I, endogenous hormone isolated from C. morosus CC; Trp^8 C-mannosylated, reference compound]” was tested, and the “% Activity relative to the effect of Carmo-HrTH-II (metabolic)” value [1] was 91^b %, the “Hemolymph carbohydrates, 90 min” value [1] was 12.9 ± 1.9 mg/mL and the “Hemolymph carbohydrates, Difference” value [1] was 4.9 ± 1.1 mg/mL. The “Hemolymph carbohydrates, 0 min” value [1] was 8.0 ± 1.6 mg/mL, the “% Activity relative to the effect of Carmo-HrTH-II (myotropic)” value [2] was 108^b % and the “Heart rate, Post-application” value [2] was 54 ± 2 beats min^−1. The “Heart rate, Pre-application” value [2] was 41 beats min^−1 and 41 ± 4 beats min^−1 and the “Heart rate, Difference” value [2] was 13 ± 2 beats min^−1.
With “pGlu-Leu-Asn-Phe-Thr-Pro-Asn-Trp amide [Pyrap-AKH, naturally-occurring AKH octapeptide bioanalog, reference compound]” the “Hemolymph carbohydrates, 90 min” value [1] was 9.2 ± 1.8 mg/mL, the “Hemolymph carbohydrates, Difference” value [1] was 0.5 ± 1.0 mg/mL and the “Hemolymph carbohydrates, 0 min” value [1] was 8.7 ± 1.8 mg/mL. The “% Activity relative to the effect of Carmo-HrTH-II (myotropic)” value [2] was 16%, the “Heart rate, Post-application” value [2] was 41 ± 4 beats min^−1 and the “Heart rate, Pre-application” value [2] was 39 ± 5 beats min^−1. For the same substance, the “Heart rate, Difference” value [2] was 2 ± 2 beats min^−1.
In the case of “pGlu-Leu-Thr-Ala-Thr-Pro-Asn-Trp-Gly-Thr amide [Ala^4-Carmo-HrTH-II]”, the “Hemolymph carbohydrates, 90 min” value [1] is reported as 9.1 ± 2.4 mg/mL, the “Hemolymph carbohydrates, Difference” value [1] is reported as 0.5 ± 2.3 mg/mL and the “Hemolymph carbohydrates, 0 min” value [1] is reported as 8.6 ± 2.2 mg/mL. For the same substance, the “Heart rate, Post-application” value [2] was 41 ± 4 beats min^−1, the “Heart rate, Pre-application” value [2] was 40 ± 4 beats min^−1 and the “Heart rate, Difference” value [2] was 1 ± 1 beats min^−1.
In the case of “pGlu-Leu-Thr-Phe-Ala-Pro-Asn-Trp-Gly-Thr amide [Ala^5-Carmo-HrTH-II]”, the “Hemolymph carbohydrates, 90 min” value [1] is reported as 10.1 ± 1.3 mg/mL, the “Hemolymph carbohydrates, Difference” value [1] is reported as -0.1 ± 0.1 mg/mL and the “Hemolymph carbohydrates, 0 min” value [1] is reported as 10.2 ± 1.2 mg/mL. The “Heart rate, Post-application” value [2] was 40 ± 7 beats min^−1, the “Heart rate, Pre-application” value [2] was 39 ± 7 beats min^−1 and the “Heart rate, Difference” value [2] was 1 ± 2 beats min^−1.
In the case of “pGlu-Leu-Thr-Phe-Thr-Pro-Asn-Trp-Gly-Thr OH [Carmo-HrTH-II: free C-terminus]”, the “% Activity relative to the effect of Carmo-HrTH-II (metabolic)” value [1] is reported as 30%, the “Hemolymph carbohydrates, 90 min” value [1] is reported as 10.4 ± 2.2 mg/mL and the “Hemolymph carbohydrates, Difference” value [1] is reported as 1.6 ± 1.6 mg/mL. For the same substance, the “Hemolymph carbohydrates, 0 min” value [1] was 8.8 ± 2.1 mg/mL, the “% Activity relative to the effect of Carmo-HrTH-II (myotropic)” value [2] was 58% and the “Heart rate, Post-application” value [2] was 47 ± 3 beats min^−1. For the same substance, the “Heart rate, Pre-application” value [2] was 40 ± 5 beats min^−1 and the “Heart rate, Difference” value [2] was 7 ± 3 beats min^−1.
For “pGlu-Leu-Thr-Phe-Thr-Pro-Asn-Trp amide [Peram-CAH-II, naturally-occurring AKH octapeptide bioanalog, reference compound]”, the “% Activity relative to the effect of Carmo-HrTH-II (metabolic)” value [1] was 30% and 31%, the “Hemolymph carbohydrates, 90 min” value [1] was 11.0 ± 1.1 mg/mL and the “Hemolymph carbohydrates, Difference” value [1] was 1.7 ± 2.0 mg/mL. For the same substance, the “Hemolymph carbohydrates, 0 min” value [1] was 9.3 ± 1.8 mg/mL.
“pGlu-Leu-Asn-Phe-Thr-Pro-Asn-Trp-Gly-Thr amide [Locmi-AKH-I, naturally-occurring AKH decapeptide bioanalog, reference compound]” was tested, and the “% Activity relative to the effect of Carmo-HrTH-II (metabolic)” value [1] was 19%, the “Hemolymph carbohydrates, 90 min” value [1] was 9.9 ± 1.2 mg/mL and the “Hemolymph carbohydrates, Difference” value [1] was 1.0 ± 1.2 mg/mL. The “Hemolymph carbohydrates, 0 min” value [1] was 8.9 ± 1.3 mg/mL, the “% Activity relative to the effect of Carmo-HrTH-II (myotropic)” value [2] was 25% and the “Heart rate, Post-application” value [2] was 43 ± 4 beats min^−1. For the same substance, the “Heart rate, Pre-application” value [2] was 40 ± 4 beats min^−1 and the “Heart rate, Difference” value [2] was 3 ± 1 beats min^−1.
For “pGlu-Ala-Thr-Phe-Thr-Pro-Asn-Trp-Gly-Thr amide [Ala^2-Carmo-HrTH-II]”, the “% Activity relative to the effect of Carmo-HrTH-II (metabolic)” value [1] was 100%, the “Hemolymph carbohydrates, 90 min” value [1] was 16.8 ± 1.7 mg/mL and the “Hemolymph carbohydrates, Difference” value [1] was 5.4 ± 1.7 mg/mL. The “Hemolymph carbohydrates, 0 min” value [1] was 11.4 ± 2.3 mg/mL, the “Heart rate, Post-application” value [2] was 42 ± 5 beats min^−1 and the “Heart rate, Pre-application” value [2] was 42 ± 7 beats min^−1. The “Heart rate, Difference” value [2] was 0 ± 2 beats min^−1.
“pGlu-Leu-Thr-Phe-Thr-Pro-Ser-Trp amide [Aedae-AKH, naturally-occurring AKH octapeptide bioanalog, reference compound]” was tested, and the “Hemolymph carbohydrates, 90 min” value [1] was 8.8 ± 1.2 mg/mL, the “Hemolymph carbohydrates, Difference” value [1] was 0.7 ± 1.1 mg/mL and the “Hemolymph carbohydrates, 0 min” value [1] was 8.1 ± 1.4 mg/mL. For the same substance, the “% Activity relative to the effect of Carmo-HrTH-II (myotropic)” value [2] was 8%, the “Heart rate, Post-application” value [2] was 43 ± 6 beats min^−1 and the “Heart rate, Pre-application” value [2] was 42 ± 6 beats min^−1. The “Heart rate, Difference” value [2] was 1 ± 1 beats min^−1.
“pGlu-Leu-Thr-Phe-Thr-Pro-Asn-Trp-Ala-Thr amide [Ala^9-Carmo-HrTH-II]” was tested, and the “% Activity relative to the effect of Carmo-HrTH-II (metabolic)” value [1] was 28%, the “Hemolymph carbohydrates, 90 min” value [1] was 11.0 ± 1.5 mg/mL and the “Hemolymph carbohydrates, Difference” value [1] was 1.5 ± 0.9 mg/mL. The “Hemolymph carbohydrates, 0 min” value [1] was 9.5 ± 1.9 mg/mL, the “Heart rate, Post-application” value [2] was 38 ± 2 beats min^−1 and the “Heart rate, Pre-application” value [2] was 39 ± 2 beats min^−1. The “Heart rate, Difference” value [2] was −1 ± 1 beats min^−1.
“pGlu-Leu-Thr-Phe-Thr-Ala-Asn-Trp-Gly-Thr amide [Ala^6-Carmo-HrTH-II]” was tested, and the “Hemolymph carbohydrates, 90 min” value [1] was 11.1 ± 0.9 mg/mL, the “Hemolymph carbohydrates, Difference” value [1] was 1.6 ± 1.1 mg/mL and the “Hemolymph carbohydrates, 0 min” value [1] was 9.5 ± 1.2 mg/mL. For the same substance, the “Heart rate, Post-application” value [2] was 43 ± 5 beats min^−1, the “Heart rate, Pre-application” value [2] was 43 ± 5 beats min^−1 and the “Heart rate, Difference” value [2] was 0 ± 0 beats min^−1.
With “pGlu-Leu-Thr-Phe-Thr-Pro-Asn-Ala-Gly-Thr amide [Ala^8-Carmo-HrTH-II]” the “Hemolymph carbohydrates, 90 min” value [1] was 8.3 ± 1.9 mg/mL, the “Hemolymph carbohydrates, Difference” value [1] was -0.1 ± 1.3 mg/mL and the “Hemolymph carbohydrates, 0 min” value [1] was 8.5 ± 2.1 mg/mL. The “Heart rate, Post-application” value [2] was 42 ± 4 beats min^−1, the “Heart rate, Pre-application” value [2] was 42 ± 5 beats min^−1 and the “Heart rate, Difference” value [2] was 0 ± 2 beats min^−1.
In the case of “pGlu-Leu-Thr-Phe-Thr-Pro-Asn-Trp-Gly-Ser amide [Phyle-CC, naturally-occurring AKH decapeptide bioanalog, reference compound]”, the “% Activity relative to the effect of Carmo-HrTH-II (metabolic)” value [1] is reported as 109^b %, the “Hemolymph carbohydrates, 90 min” value [1] is reported as 14.1 ± 1.7 mg/mL and the “Hemolymph carbohydrates, Difference” value [1] is reported as 5.9 ± 1.7 mg/mL. The “Hemolymph carbohydrates, 0 min” value [1] was 8.2 ± 1.9 mg/mL, the “% Activity relative to the effect of Carmo-HrTH-II (myotropic)” value [2] was 67^b % and the “Heart rate, Post-application” value [2] was 46 ± 6 beats min^−1. For the same substance, the “Heart rate, Pre-application” value [2] was 38 ± 7 beats min^−1 and the “Heart rate, Difference” value [2] was 8 ± 2 beats min^−1.
